Read-outs that look alike come from different tables or passages of the source.
What was measured:
[1] = Size distribution by dynamic light scattering; assay type: physicochemical; settings: DLS, mHBSS pH 5, 25 °C, 180 µM insulin or PTH(1-34), alone or mixed with 720 µM penetratin, N = 3, mean ± SD
Experimental: Size distributions according to the distribution by volume were determined using a Zetasizer Nano ZSP (Malvern Instruments, Worcestershire, UK) equipped with a 633 nm laser at 25 °C with 10–20 runs of 10 s and N = 3.

[2] = In situ rat intestinal injection: plasma insulin or PTH(1-34); assay type: in vivo; settings: intraintestinal
Experimental: 100 μL test samples were withdrawn from the basolateral compartment at time-points 0, 60, 120 and 180 min and stored at -20 °C. The sample volume was immediately replaced with 37 °C hHBSS. […] Male Sprague Dawley rats (Taconic, Ejby, Denmark) weighing ~250 g were allowed to acclimatize for at least 8 days at 20-22 °C and 45-65% humidity with free access to water and food. The rats were fasted for 18 h prior to surgery. Hypnorm (fentanyl 0.315 mg/mL and fluanisone 10 mg/mL) (Glostrup apotek, Glostrup, Denmark) and Dormicum (midazolam 5 mg/mL) (Nomeco, Copenhagen, Denmark) were mixed 1:1 (v/v) with ultrapure water and used for anesthesia. The initial dose was 2 mL/kg and subsequent doses of 1 mL/kg were given every 20 min within the first hour and thereafter every 40 min to keep the animals anaesthetized. All doses of anesthetics were administered subcutaneously in the neck region. The abdominal wall was cut open and the small intestine localized. A 10 cm PE-50 catheter (Smiths Medical, Keene, NH, USA) was inserted into the middle of the intestine and secured with a 3/0 suture (Braun, Tuttlingen, Germany). Care was taken not to interrupt the mesenteric blood flow. The intestine was hydrated with 1-2 mL isotonic sodium chloride solution before the rat abdominal wall was closed with 9 mm clips using the AutoClip Wound Closure System (Alzet, Cupertino, CA, USA). […] The blood samples were placed on ice prior isolation of the plasma by centrifugation at 2000× g at 4 °C for 10 min (Eppendorf centrifuge 5424, Eppendorf, Hamburg, Germany). Blood glucose was measured at time points of 15, 30, 45, 60, 90, and 120 min after dosing using an On-Call blood glucose meter (Acon, San Diego, CA, USA). After the final blood sampling, the animals were euthanized while still under anesthesia using 90% CO2 in O2 [19]. The abdominal wall of the rats was reopened after the experiment to ensure the catheter was still in place. Likewise, control of potential damage to the intestine was determined macroscopically. The experiments were conducted in strict compliance with the national animal research license 2009/561-1622.

Caco-2 cell monolayers [3] = assay: In vitro stability during apical incubation on Caco-2 cell monolayers; assay type: in vitro ADME, human; settings: 37 °C, RP-HPLC; for peptide remaining after 4 h in physical mixture with penetratin, % of initially applied: 5 µM peptide + 20 µM penetratin, N = 3, mean ± SD
Experimental: (§1) At 80% confluency the cells were sub-cultured by detaching them from the culture flasks by trypsin-EDTA treatment. […] [17]. Briefly, The Caco-2 cell monolayers were washed twice apical and basolateral with 37 °C hHBSS and equilibrated to room temperature in the last washing volume. The transepithelial electrical resistance (TEER) was measured using an EVOM equipped with an Endohm-12 cup (World Precision Instruments, Sarasota, FL, USA) to validate the barrier integrity of the monolayer. Following equilibration to 37 °C the filter inserts were transferred to empty 6-well plates in order to block permeation across the monolayer. […] The kinetics of the metabolic degradation was evaluated by analytical RP-HPLC as described under the ultracentrifugation procedure.

[4] = ThT binding to supramolecular complexes, plate reader fluorescence; assay type: physicochemical; settings: all pH-values tested (5, 6.5, 7.4); 50 µM insulin or PTH(1-34) or 200 µM penetratin alone, 100 µM ThT; N = 3
Male Sprague Dawley rats = assay: In situ rat intestinal injection: blood glucose; assay type: in vivo; settings: intraintestinal
Experimental: Male Sprague Dawley rats (Taconic, Ejby, Denmark) weighing ~250 g were allowed to acclimatize for at least 8 days at 20–22 °C and 45–65% humidity with free access to water and food. The rats were fasted for 18 h prior to surgery. Hypnorm (fentanyl 0.315 mg/mL and fluanisone 10 mg/mL) (Glostrup apotek, Glostrup, Denmark) and Dormicum (midazolam 5 mg/mL) (Nomeco, Copenhagen, Denmark) were mixed 1:1 (v/v) with ultrapure water and used for anesthesia. The initial dose was 2 mL/kg and subsequent doses of 1 mL/kg were given every 20 min within the first hour and thereafter every 40 min to keep the animals anaesthetized. All doses of anesthetics were administered subcutaneously in the neck region. The abdominal wall was cut open and the small intestine localized. A 10 cm PE-50 catheter (Smiths Medical, Keene, NH, USA) was inserted into the middle of the intestine and secured with a 3/0 suture (Braun, Tuttlingen, Germany). Care was taken not to interrupt the mesenteric blood flow. The intestine was hydrated with 1–2 mL isotonic sodium chloride solution before the rat abdominal wall was closed with 9 mm clips using the AutoClip Wound Closure System (Alzet, Cupertino, CA, USA). The animal was left on a 37 °C heating plate (Scandidact, Kvistgaard, Denmark) for 30 min prior dosing of the test samples to allow normalization of the potentially elevated blood glucose level resulting from stress induced by handling and surgery. […] A volume of 200 µL air was injected immediately after dosing to fully empty the catheter into the intestinal lumen. 200 µL blood samples were collected from the tail vein at time points 0, 5, 15, 30, 45, 60, 90, and 120 min into EDTA-coated microcuvette vials (Sarstedt, Nümbrecht, Germany). The blood samples were placed on ice prior isolation of the plasma by centrifugation at 2000× g at 4 °C for 10 min (Eppendorf centrifuge 5424, Eppendorf, Hamburg, Germany). Blood glucose was measured at time points of 15, 30, 45, 60, 90, and 120 min after dosing using an On-Call blood glucose meter (Acon, San Diego, CA, USA). After the final blood sampling, the animals were euthanized while still under anesthesia using 90% CO2 in O2 [19]. The abdominal wall of the rats was reopened after the experiment to ensure the catheter was still in place. Likewise, control of potential damage to the intestine was determined macroscopically. The experiments were conducted in strict compliance with the national animal research license 2009/561-1622.

Caco-2 cell monolayers [5] = assay: In vitro transepithelial permeation across Caco-2 cell monolayers; assay type: in vitro ADME, human; settings: Caco-2, apical to basolateral, 3 h, 37 °C, ELISA/EIA, N = 3, n = 3; for effect on permeation of lowering the sample pH from 6.5 or 7.4 to pH 5, without penetratin (in words): 5 µM peptide alone
Experimental: At 80% confluency the cells were sub-cultured by detaching them from the culture flasks by trypsin-EDTA treatment. […] Caco-2 cell monolayers were washed twice apical and basolateral with 37 °C hHBSS. The cells were equilibrated to room temperature in the last washing volume before TEER was measured using an EVOM equipped with an Endohm-12 cup (World Precision Instruments, Sarasota, FL, USA) and equilibration to 37 °C. […] The permeation study was initiated by careful transfer of the filter inserts to fresh 12-well plates containing 1 mL 37 °C hHBSS. The experiment was performed on a 37 °C shaking table (50 rpm). 100 µL test samples were withdrawn from the basolateral compartment at time-points 0, 60, 120 and 180 min and stored at −20 °C. The sample volume was immediately replaced with 37 °C hHBSS.

[6] = In vitro stability during apical incubation on Caco-2 cell monolayers; assay type: in vitro ADME, human; settings: human, peptide alone, 5 µM, 37 °C, RP-HPLC, N = 3, mean ± SD, read-out: intact peptide remaining after 4 h, % of initial concentration
Experimental: as §1

[7] = no reference given; cited from earlier work
[8] = Visual inspection of samples at the concentrations applied in vivo; assay type: physicochemical; settings: PTH(1-34) mixed with penetratin
[9] = pH 5, apical incubation on Caco-2 monolayers
[10] = pH 7.4, apical incubation on Caco-2 monolayers
[11] = insulin (50 IU/kg) alone or 720 µM penetratin alone, pH 5, N = 6, mean ± SD
[12] = apical pH 5, 5 µM peptide + 20 µM penetratin
[13] = apical pH 6.5 and 7.4, 5 µM peptide + 20 µM penetratin
[14] = pH 6.5, apical incubation on Caco-2 monolayers

ThT fluorescence above background, peptide alone (in words) [4]	Molecule	peptide remaining after 4 h in physical mixture with penetratin, % of initially applied (Caco-2 cell monolayers [3]; [9])	peptide remaining after 4 h in physical mixture with penetratin, % of initially applied (Caco-2 cell monolayers [3]; [10])	blood glucose level, % of initial value (Male Sprague Dawley rats; [11])	effect on permeation of lowering the sample pH from 6.5 or 7.4 to pH 5, without penetratin (in words) (Caco-2 cell monolayers [5])	penetratin-mediated transepithelial permeation / Papp (in words) (Caco-2 cell monolayers [5]; [12])	penetratin-mediated transepithelial permeation / Papp (in words) (Caco-2 cell monolayers [5]; [13])	pI [7]	also measured
no pronounced increase	CC[C@H](C)[C@H](NC(=O)[C@H](CCC(=O)O)NC(=O)[C@H](CO)NC(=O)[C@@H](NC(=O)[C@@H](N)CO)C(C)C)C(=O)N[C@@H](CCC(N)=O)C(=O)N[C@@H](CC(C)C)C(=O)N[C@@H](CCSC)C(=O)N[C@@H](Cc1cnc[nH]1)C(=O)N[C@@H](CC(N)=O)C(=O)N[C@@H](CC(C)C)C(=O)NCC(=O)N[C@@H](CCCCN)C(=O)N[C@@H](Cc1cnc[nH]1)C(=O)N[C@@H](CC(C)C)C(=O)N[C@@H](CC(N)=O)C(=O)N[C@@H](CO)C(=O)N[C@@H](CCSC)C(=O)N[C@@H](CCC(=O)O)C(=O)N[C@@H](CCCN=C(N)N)C(=O)N[C@H](C(=O)N[C@@H](CCC(=O)O)C(=O)N[C@@H](Cc1c[nH]c2ccccc12)C(=O)N[C@@H](CC(C)C)C(=O)N[C@@H](CCCN=C(N)N)C(=O)N[C@@H](CCCCN)C(=O)N[C@@H](CCCCN)C(=O)N[C@@H](CC(C)C)C(=O)N[C@@H](CCC(N)=O)C(=O)N[C@@H](CC(=O)O)C(=O)N[C@H](C(=O)N[C@@H](Cc1cnc[nH]1)C(=O)N[C@@H](CC(N)=O)C(=O)N[C@@H](Cc1ccccc1)C(=O)O)C(C)C)C(C)C [PTH(1-34)]	72.4 ± 3.0%	69.9 ± 2.7%		did not increase	increase	no significant increase	8.3	pH-dependent trend of penetratin-mediated delivery, Cmax of plasma PTH(1-34) and AUC ([2]; PTH(1-34) 1.2 mg/kg + penetratin 1:4, N = 6): pH 5 > pH 6.5 > pH 7.4; peptide remaining after 4 h in physical mixture with penetratin, % of initially applied (Caco-2 cell monolayers [3]; [14]): 67.0 ± 2.6%; remaining at 4 h, 5 µM [6, 9]: 66.6 ± 8.5%; remaining at 4 h, 5 µM [6, 14]: 71.7 ± 7.1%; remaining at 4 h, 5 µM [6, 10]: 73.6 ± 9.1%; visible precipitation on mixing with penetratin (in words) [8]: not evident
no pronounced increase	RQIKIWFQNRRMKWKK [penetratin]			did not affect				12.3	

Molecule	ThT fluorescence above background, peptide alone (in words) [4]	peptide remaining after 4 h in physical mixture with penetratin, % of initially applied (Caco-2 cell monolayers [3]; [9])	peptide remaining after 4 h in physical mixture with penetratin, % of initially applied (Caco-2 cell monolayers [3]; [10])	blood glucose level, % of initial value (Male Sprague Dawley rats; [11])	effect on permeation of lowering the sample pH from 6.5 or 7.4 to pH 5, without penetratin (in words) (Caco-2 cell monolayers [5])	penetratin-mediated transepithelial permeation / Papp (in words) (Caco-2 cell monolayers [5]; [12])	penetratin-mediated transepithelial permeation / Papp (in words) (Caco-2 cell monolayers [5]; [13])	pI [7]	also measured
insulin: Human recombinant insulin (5807.6 g/mol, Zn-free) provided by Sanofi	increase	89.9 ± 11.2%	remained stable	86.9 ± 6.0%	did not increase	increase	no significant increase		volume mean size [1]: 1579 ± 319 nm; plasma insulin concentration and AUC on co-administration with penetratin (in words) ([2]; insulin 50 IU/kg + penetratin 1:4, pH 5, compared to pH 6.5 and 7.4, N = 6): greatest effect; plasma insulin concentration and AUC on co-administration with penetratin (in words) ([2]; insulin 50 IU/kg + penetratin 1:4, pH 6.5, N = 6): slight increase; plasma insulin concentration and AUC on co-administration with penetratin (in words) ([2]; insulin 50 IU/kg + penetratin 1:4, pH 7.4, N = 6): did not differ from administration of insulin alone; stability during incubation for 4 h (in words) (Caco-2 cell monolayers [3]; 5 µM insulin alone, pH 5, 6.5, or 7.4, apical incubation on Caco-2 monolayers, N = 3): remained stable; blood glucose level, % of initial value (Male Sprague Dawley rats; insulin 50 IU/kg in physical mixture with 720 µM penetratin (1:4), pH 5, 60 min time-point, N = 6, mean ± SD): 38.5 ± 23.8%; blood glucose level, % of initial value (Male Sprague Dawley rats; insulin 50 IU/kg in physical mixture with 720 µM penetratin (1:4), pH 6.5, after 60 min, N = 6, mean ± SD): 71.1 ± 17.8%; blood glucose level, % of initial value (Male Sprague Dawley rats; insulin 50 IU/kg in physical mixture with 720 µM penetratin (1:4), pH 7.4, after 60 min, N = 6, mean ± SD): 83.3 ± 21.2%; blood glucose level, % of initial value (Male Sprague Dawley rats; insulin (50 IU/kg) alone, pH 6.5, N = 6, mean ± SD): 88.9 ± 11.1%; blood glucose level (in words) (Male Sprague Dawley rats; insulin (50 IU/kg) alone, pH 7.4, N = 6): did not affect

Source: paper PMC7589992 (Pharmaceutics, 2020)
